Measurements as given in US11357743B2, “Ketamine and propofol admixture” (Mayo Foundation for Medical Education and Research, priority 2017, dated 2022).

Key:
[1] = Ketofol vs etomidate for emergent endotracheal intubation in critically ill patients (randomized clinical trial); assay type: in vivo, human; conditions: share of group
[2] = Nursing and patient assessment surveys after induction of general anesthesia with propofol or ketofol (randomized, double-blinded controlled trial)
Text: 85 patients of ASA Class 1-2 scheduled for surgical procedures that involved general anesthesia were assigned to one of two arms, one involving induction with propofol and the other involving induction with “ketofol” (a ketamine/propofol combination) in a randomized, double-blinded controlled trial. Patients were placed on standard ASA monitors including a BIS monitor and a noninvasive cardiac output monitor (NICOM) prior to induction of general anesthesia.
One minute before induction, baseline hemodynamics were recorded with standard ASA monitors as well as with the NICOM. Providers were given one 20 ml syringe and one 10 ml syringe for rescue if needed. As part of the induction, fentanyl (1-2 mcg/kg) and any relaxant excluding succinylcholine and pancuronium was given. The 20 ml syringe in both groups looked identical, appeared to be propofol but depending on the group they were randomized to, it represented either 2 mg/kg of propofol (propofol group) or 0.75 mg/kg of ketamine and 1.5 mg/kg of propofol (“ketofol” group). The 10 ml rescue syringe, if used, represented 1 mg/kg of propofol (propofol group) or 0.25 mg/kg of ketamine and 0.5 mg/kg of propofol (“ketofol” group). Hemodynamics were recorded every minute for a total of 30 minutes post-induction. During this time, anesthesia was maintained with any volatile agent excluding nitrous oxide. […] Patients were given survey questions that centered on emergence, discharge times, pain control, and nausea/vomiting. In addition, nurses were also asked to fill out a survey which dealt with similar questions.

[3] = Likert scaled responses from 0 (strongly disagree) to 7 (strongly agree)
[4] = Likert scaled responses from 0 (very poorly) to 7 (perfectly)

| SMILES | Serious adverse events reported [1] [%] | Patient Assessment: Emergence (woke up well), Mean [2, 3] | Patient Assessment: No PONV, Mean [2, 3] | Patient Assessment: No Pain, Mean [2, 3] | Nursing Assessment: Discharge (from unit), Mean [2, 4] | Nursing Assessment: Emergence (wake up), Mean [2, 4] | Nursing Assessment: Protection from PONV, Mean ([2]; Likert scaled responses from 0 (very poorly) to 7 (perfectly), PONV = post-operative nausea/vomiting) |
| --- | --- | --- | --- | --- | --- | --- | --- |
| CCOC(=O)c1cncn1[C@H](C)c1ccccc1 [etomidate] | 5 |  |  |  |  |  |  |
| CC(C)c1cccc(C(C)C)c1O [Propofol, 2,6-diisopropylphenol] |  | 5.5 | 5.5 | 3.8 | 5.1 | 5.4 | 5.5 |
